# Like-named read-outs stand apart in the source and are kept apart here.
# Target: T1, mouse TMEM16A mutant P595A (Mus musculus, UniProt Q8BHY3, P595A)
# T1 construct: expressed in transfected cells; host or cells: HEK293T
# T1 sequence (Q8BHY3 1-960 P595A): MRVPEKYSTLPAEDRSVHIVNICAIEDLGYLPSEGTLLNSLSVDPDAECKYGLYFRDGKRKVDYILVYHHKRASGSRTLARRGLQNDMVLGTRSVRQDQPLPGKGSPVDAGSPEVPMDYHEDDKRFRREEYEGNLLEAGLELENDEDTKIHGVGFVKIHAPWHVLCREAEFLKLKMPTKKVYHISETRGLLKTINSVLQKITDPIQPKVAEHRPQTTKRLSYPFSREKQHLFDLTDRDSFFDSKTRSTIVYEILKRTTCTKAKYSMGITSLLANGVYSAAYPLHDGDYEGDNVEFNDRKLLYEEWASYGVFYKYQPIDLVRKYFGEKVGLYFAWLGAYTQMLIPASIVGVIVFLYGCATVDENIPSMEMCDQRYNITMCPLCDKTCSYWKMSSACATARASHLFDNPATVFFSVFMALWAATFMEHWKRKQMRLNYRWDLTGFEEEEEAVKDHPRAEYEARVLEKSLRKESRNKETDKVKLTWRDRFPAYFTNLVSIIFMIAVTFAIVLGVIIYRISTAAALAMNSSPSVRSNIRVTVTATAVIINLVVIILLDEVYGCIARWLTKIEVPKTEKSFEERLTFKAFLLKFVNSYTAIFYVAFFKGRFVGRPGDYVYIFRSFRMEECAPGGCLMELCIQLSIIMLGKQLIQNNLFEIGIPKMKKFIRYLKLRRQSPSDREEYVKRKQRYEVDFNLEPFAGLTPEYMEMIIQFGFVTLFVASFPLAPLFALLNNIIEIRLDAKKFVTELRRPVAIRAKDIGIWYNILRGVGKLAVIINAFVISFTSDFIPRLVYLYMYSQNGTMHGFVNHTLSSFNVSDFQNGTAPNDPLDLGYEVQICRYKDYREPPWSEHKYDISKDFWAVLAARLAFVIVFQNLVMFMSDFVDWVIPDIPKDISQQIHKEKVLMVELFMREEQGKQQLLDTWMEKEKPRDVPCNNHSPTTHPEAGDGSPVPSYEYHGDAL
# Experiment: Inside-out patch recording of 1PBC block, mutant P595A
# Type: cell-based
# Settings: for remaining activity at 1 µM: 1PBC conc 1; for remaining activity at 1 µM / remaining activity at 3 µM / remaining activity at 10 µM / remaining activity at 30 µM: read-out: relative current in 1PBC (avr); for remaining activity at 3 µM: 1PBC conc 3; for remaining activity at 10 µM: 1PBC conc 10; for remaining activity at 30 µM: 1PBC conc 30
# Description: HEK293T cells (ATCC CRL-1573) were maintained in Dulbecco’s modified Eagle’s medium (DMEM; Sigma-Aldrich) supplemented with 10 U ml^−1 penicillin, 0.1 mg ml^−1 streptomycin (Sigma-Aldrich), 2 mM L-glutamine (Sigma-Aldrich), and 10% FBS (Sigma-Aldrich) in a humidified atmosphere containing 5% CO2 at 37 °C. HEK293S GnTI^− cells (ATCC CRL-3022) were maintained in HyClone HyCell TransFx-H medium (GE Healthcare) supplemented with 10 U ml^−1 penicillin, 0.1 mg ml^−1 streptomycin, 4 mM L-glutamine, 0.15% poloxamer 188 (Sigma-Aldrich), and 1% FBS in an atmosphere containing 5% CO2 at 185 rpm at 37 °C. The ac splice variant of mouse TMEM16A (UniProt ID: Q8BHY3), mouse TMEM16B (UniProt ID: Q8CFW1), or mouse TMEM16F (UniProt ID: Q6P9J9) bearing a 3C cleavage site, a Venus YFP, a Myc tag, and a Streptavidin-binding peptide (SBP) downstream of the open reading frame in a modified pcDNA3.1 vector (Invitrogen) were used as described previously[21],[31]. Mutations were introduced using a modified QuikChange method[58] and were verified by sequencing.
# HEK293T cells were transfected with 3–4 μg DNA per 6 cm Petri dish using the calcium phosphate co-precipitation method and were used within 24–96 h after transfection. Recordings were performed on inside-out patches excised from HEK293T cells expressing the construct of interest. Patch pipettes were pulled from borosilicate glass capillaries (O.D. 1.5 mm, I.D. 0.86 mm, Sutter Instrument) and were fire-polished with a microforge (Narishige) before use. Pipette resistance was typically 3–8 MΩ when filled with the recording solutions detailed below. Seal resistance was typically 4 GΩ or higher. Voltage-clamp recordings were made using Axopatch 200B, Digidata 1550, and Clampex 10.7 (Molecular Devices). Analog signals were filtered with the in-built 4-pole Bessel filter at 10 kHz and were digitized at 20 kHz. Solution exchange was achieved using a gravity-fed system through a theta glass pipette mounted on an ultra-fast piezo-driven stepper (Siskiyou). […] All recordings were performed at 20 °C.
# A symmetrical ionic condition was used throughout. Stock solution with Ca^2+-EGTA contained 150 mM NaCl, 5.99 mM Ca(OH)2, 5 mM EGTA, and 10 mM HEPES at pH 7.40. Stock solution with EGTA contained 150 mM NaCl, 5 mM EGTA, and 10 mM HEPES at pH 7.40. Free Ca^2+ concentrations were adjusted by mixing the stock solutions at the required ratios calculated using the WEBMAXC program (http://web.stanford.edu/~cpatton/webmaxcS.htm). Patch pipettes were filled with the stock solution with Ca^2+-EGTA, which has a free Ca^2+ concentration of 1 mM. 1PBC (ChemBridge) stock was reconstituted in anhydrous DMSO (Sigma-Aldrich) at 100 mM and stored at −20 °C. Working solutions with 1PBC were prepared by serial dilution. Unless otherwise stated, experiments were performed at a saturating Ca^2+ concentration as shown in Supplementary Table 1 and the primary data were corrected for current rundown as described previously[21],[25].
# Concentration-response relations, obtained from the ratio of the I-V plots before and after the application of the blocker, were fitted to the Hill equation,1 I/Imax=1/1+IC50/[blocker]^h where I/Imax is the normalized current responses, IC50 defines the concentration at which inhibition is at its half-maximum, and h is the Hill coefficient.
smiles,measurement,setting,value
N#Cc1c(C(F)(F)F)cc(O)n2c1nc1ccccc12 [1PBC],IC50,"0 mV, 2 µM Ca2+",3.1 µM
same,remaining activity at 1 µM,0 mV,75.3%
same,remaining activity at 3 µM,0 mV,48.8%
same,remaining activity at 10 µM,0 mV,25.9%
same,remaining activity at 30 µM,0 mV,11.1%
same,IC50,"20 mV, 2 µM Ca2+",2.46 µM
same,remaining activity at 1 µM,20 mV,70.9%
same,remaining activity at 3 µM,20 mV,43%
same,remaining activity at 10 µM,20 mV,22.6%
same,remaining activity at 30 µM,20 mV,8.98%
same,IC50,"40 mV, 2 µM Ca2+",2 µM
same,remaining activity at 1 µM,40 mV,66.5%
same,remaining activity at 3 µM,40 mV,38.4%
same,remaining activity at 10 µM,40 mV,19%
same,remaining activity at 30 µM,40 mV,7.73%
same,IC50,"60 mV, 2 µM Ca2+",1.75 µM
same,remaining activity at 1 µM,60 mV,64.4%
same,remaining activity at 3 µM,60 mV,34.6%
same,remaining activity at 10 µM,60 mV,16.9%
same,remaining activity at 30 µM,60 mV,7.56%
same,IC50,"80 mV, 2 µM Ca2+",1.57 µM
same,remaining activity at 1 µM,80 mV,61.3%
same,remaining activity at 3 µM,80 mV,32.5%
same,remaining activity at 10 µM,80 mV,15.9%
same,remaining activity at 30 µM,80 mV,7.06%
same,IC50,"100 mV, 2 µM Ca2+",1.48 µM
same,remaining activity at 1 µM,100 mV,60.2%
same,remaining activity at 3 µM,100 mV,31%
same,remaining activity at 10 µM,100 mV,15.3%
same,remaining activity at 30 µM,100 mV,6.31%
same,IC50,"120 mV, 2 µM Ca2+",1.63 µM
same,remaining activity at 1 µM,120 mV,64.3%
same,remaining activity at 3 µM,120 mV,31.5%
same,remaining activity at 10 µM,120 mV,15.7%
same,remaining activity at 30 µM,120 mV,6.66%
same,IC50,"140 mV, 2 µM Ca2+",1.91 µM
same,remaining activity at 1 µM,140 mV,70.3%
same,remaining activity at 3 µM,140 mV,33.2%
same,remaining activity at 10 µM,140 mV,17.5%
same,remaining activity at 30 µM,140 mV,7.54%
same,IC50,"-20 mV, 2 µM Ca2+",3.88 µM
same,remaining activity at 1 µM,-20 mV,79.6%
same,remaining activity at 3 µM,-20 mV,54.6%
same,remaining activity at 10 µM,-20 mV,29.2%
same,remaining activity at 30 µM,-20 mV,13.3%
same,IC50,"-40 mV, 2 µM Ca2+",4.91 µM
same,remaining activity at 1 µM,-40 mV,84%
same,remaining activity at 3 µM,-40 mV,59.7%
same,remaining activity at 10 µM,-40 mV,33.9%
same,remaining activity at 30 µM,-40 mV,15.9%
same,IC50,"-60 mV, 2 µM Ca2+",5.83 µM
same,remaining activity at 1 µM,-60 mV,87.1%
same,remaining activity at 3 µM,-60 mV,62.7%
same,remaining activity at 10 µM,-60 mV,37.7%
same,remaining activity at 30 µM,-60 mV,18.7%
same,IC50,"-80 mV, 2 µM Ca2+",7 µM
same,remaining activity at 1 µM,-80 mV,88.8%
same,remaining activity at 3 µM,-80 mV,67.8%
same,remaining activity at 10 µM,-80 mV,41.3%
same,remaining activity at 30 µM,-80 mV,21%
same,IC50,"-100 mV, 2 µM Ca2+",8.19 µM
same,remaining activity at 1 µM,-100 mV,90.4%
same,remaining activity at 3 µM,-100 mV,70.3%
same,remaining activity at 10 µM,-100 mV,45%
same,remaining activity at 30 µM,-100 mV,24%
same,IC50,"-120 mV, 2 µM Ca2+",9.33 µM
same,remaining activity at 1 µM,-120 mV,92.2%
same,remaining activity at 3 µM,-120 mV,72.9%
same,remaining activity at 10 µM,-120 mV,47.9%
same,remaining activity at 30 µM,-120 mV,26.1%
same,IC50,"-140 mV, 2 µM Ca2+",10.5 µM
same,remaining activity at 1 µM,-140 mV,93.8%
same,remaining activity at 3 µM,-140 mV,75.4%
same,remaining activity at 10 µM,-140 mV,50.3%
same,remaining activity at 30 µM,-140 mV,28.4%
same,IC50,"P595A, V 0 mV",3.1 µM
same,IC50,"P595A, V 20 mV",2.46 µM
same,IC50,"P595A, V 40 mV",2 µM
same,IC50,"P595A, V 60 mV",1.75 µM
same,IC50,"P595A, V 80 mV",1.57 µM
same,IC50,"P595A, V 100 mV",1.48 µM
same,IC50,"P595A, V 120 mV",1.63 µM
same,IC50,"P595A, V 140 mV",1.91 µM
same,IC50,"P595A, V -20 mV",3.88 µM
same,IC50,"P595A, V -40 mV",4.91 µM
same,IC50,"P595A, V -60 mV",5.83 µM
same,IC50,"P595A, V -80 mV",7 µM
same,IC50,"P595A, V -100 mV",8.19 µM
same,IC50,"P595A, V -120 mV",9.33 µM
same,IC50,"P595A, V -140 mV",10.5 µM

# Reference: paper PMC9120017, “Inhibition mechanism of the chloride channel TMEM16A by the pore blocker 1PBC” (Nature Communications, 2022)
